Test results: patent US9562082B2, “Production of glycoproteins with low N-glycolylneuraminic acid (Neu5Gc) content” (LEK Pharmaceuticals D.D., priority 2009, dated 2017)

Key:
Assay type in all cases: cell-based, Chinese hamster
Recombinant CHO cells [1] = test: Titre of secreted glycoprotein by ELISA
Method: (§1) Cell viability was determined by the trypan blue exclusion method. The cell concentration was determined using a Vi-CELL™ Series Cell Viability Analyzer (Beckman Coulter, Fullerton, Calif., USA). Glucose, lactate, glutamine, and ammonia (NH4^+) concentrations were measured during the growth phase using a BioProfile Analyzer for mammalian cell culture (BioProfile 100 plus, Nova Biomedical, Waltham, USA). Additionally, oxygen and […] concentrations were monitored daily using pHOx (Stat Prophile pHOx Basic, Nova Biomedical, Waltham, USA). Secreted glycoprotein concentrations were quantified by enzyme linked immunosorbent assay (ELISA), and the titres were expressed in μg/ml.
The concentration of the secreted glycoproteins was quantified using an enzyme linked immunosorbent assay kit from R&D Systems (R&D Systems, Inc., Minneapolis, Minn., USA) according to the manufacturer's instructions. Microplate wells, pre-coated with monoclonal (mouse) antibodies specific for the respective glycoproteins expressed were first incubated with standard blank samples and specimens. […] The absorbance of the coloured solution was measured photometrically at 450 nm (Micro plate reader, Tecan, Columbus, USA) and was proportional to the concentration of the glycoprotein in the sample.

Recombinant CHO cells [2] = test: Specific productivity (Qp); conditions: DMSO 0.75, temperature 37
Method: According to the optimal range of the DMSO concentration, a numerical and graphical optimisation was performed using DOE software (FIG. 3). A minimal content of Neu5Gc and a maximal content of the most acidic isoforms were chosen as very important parameters, while increased titres and growth rates were weighted as medium important parameters. The ramps were extended a little over the limits. […] The specific productivity (Qp) was calculated following Equation 1 and expressed as pg of glycoprotein/[…]=(P2-P1)/((X2+X1)*(t2-t1)/2) Equation 1 (P2 and P1 are concentrations of secreted glycoprotein at the end and at the beginning of the repeated batches, respectively; X1 and X2 are cell concentrations at the corresponding time points t1 and t2).

Recombinant CHO cells [3] = test: Cell viability by trypan blue exclusion; conditions: 8 day batch cultures, all DMSO concentrations, times of addition and temperatures tested
Method: as §1
Initially, the inventor avoided the addition of DMSO to the cell culture at the beginning of the bioprocess, because […] speculated that such addition might not be optimal, since the cells had no time for an optimal lag phase-growth (adaptation). […] Viable cell density and viability of the cells were measured in the middle and at the end of that period. The final titre (concentration of each glycoprotein in the culture medium) was measured in the supernatants with ELISA. […] The content of Neu5Gc on the purified glycoproteins was determined, and the acidic isoform distribution reflecting the degree of sialylation was measured with AEX.

Recombinant CHO cells [4] = test: Specific growth rate; conditions: DMSO 0.75, temperature 37
Method: The specific growth rate was calculated following Equation 2 and represents the overall biomass accumulation under the growth curve from the beginning to the end of the batch process (expressed as a logarithmic value per day (day^−1)). Specific growth rate=ln(X2/X1)/(t2−t1) Equation 2 (X1 is the number of viable cells on day 0 and X2 the number of cells at the end of the repeated batches, respectively. t1 is time 0, and t2 is time 7 or the end day of the process, respectively.)

Q: How did the “Titre, DOE point prediction” value (Recombinant CHO cells [1]; DMSO 0.75, temperature 37) turn out when `C[S+](C)[O-]` [DMSO, dimethyl sulfoxide] was run?
A: 65.56 µg/mL

Q: What about the titre (Recombinant CHO cells [1]; darbepoetin alfa, with DMSO) of the same molecule?
A: ~57 µg/mL

Q: And the “Specific productivity, DOE point prediction” value (Recombinant CHO cells [2])?
A: 2.43 pcd

Q: And the final cell viability (Recombinant CHO cells [3])?
A: above 97.5%

Q: What about the “Specific growth rate, DOE point prediction” value (Recombinant CHO cells [4]) of the same molecule?
A: 0.54 day⁻¹
